For data set [1], the system named is pathogenic Vibrio bacteria. The following applies: intraperitoneal injection, juvenile coho salmon; cited from earlier work.
Data set [2] has as its system human intestinal epithelial cells. The following applies: cited from earlier work.
Data set [3] has as its system 18 bacterial and fungal microorganisms. The following applies: cited from earlier work.
The next data set has as its system Xylella fastidiosa. The following applies: in vivo.
A further data set deals with Pseudomonas aeruginosa. The following applies: cited from earlier work.

For “Pleurocidin: 25-residue cationic antimicrobial peptide from skin secretions of winter flounder (GWGSFFKKAAHVGKHVGKAALTHYL; Pleurocidin; UniProt P81941 23-47, looked up)”, in data set [1], the “efficacy against lethal vibriosis compared to CEME” value is on record as “more effective”. Further, the cytotoxic effects result in data set [2] is listed as “no cytotoxic effects”. In addition, the “microorganisms against which the peptide was effective” value in data set [3] was 17 of the 18.

In the case of “MAKWKLFKKIGIGFKKAAHVGKAALTK [B-passerin]”, in the data set with Xylella fastidiosa, the “time plants survived stringent disease challenges with no or lessened visible symptoms” value is recorded as “up to 12 months”, the “time surviving plants remained symptomless” value is “over 8 months” and the “transgenic plants that survived the high stringency greenhouse test” value is recorded as 90%.

Regarding KWKLFKKIGIGAVLKV TTGLPALKTLK [CEMA], in the data set on Pseudomonas aeruginosa, the MIC is reported as 2.8 μg per ml.

These data come from patent US20100138957A1 (priority 2007, published 2010).
